These results are taken from patent US20210130339A1, “COMPOUNDS” (GLAXOSMITHKLINE INTELLECTUAL PROPERTY DEVELOPMENT LIMITED, priority 2017, published 2021).

Where “and” joins values, the source holds several entries; their conditions need not be identical. Identical values can stand only once. A value given as a limit tells only on which side of the number the result lay.

T1 sequence (Q5S007 whole entry): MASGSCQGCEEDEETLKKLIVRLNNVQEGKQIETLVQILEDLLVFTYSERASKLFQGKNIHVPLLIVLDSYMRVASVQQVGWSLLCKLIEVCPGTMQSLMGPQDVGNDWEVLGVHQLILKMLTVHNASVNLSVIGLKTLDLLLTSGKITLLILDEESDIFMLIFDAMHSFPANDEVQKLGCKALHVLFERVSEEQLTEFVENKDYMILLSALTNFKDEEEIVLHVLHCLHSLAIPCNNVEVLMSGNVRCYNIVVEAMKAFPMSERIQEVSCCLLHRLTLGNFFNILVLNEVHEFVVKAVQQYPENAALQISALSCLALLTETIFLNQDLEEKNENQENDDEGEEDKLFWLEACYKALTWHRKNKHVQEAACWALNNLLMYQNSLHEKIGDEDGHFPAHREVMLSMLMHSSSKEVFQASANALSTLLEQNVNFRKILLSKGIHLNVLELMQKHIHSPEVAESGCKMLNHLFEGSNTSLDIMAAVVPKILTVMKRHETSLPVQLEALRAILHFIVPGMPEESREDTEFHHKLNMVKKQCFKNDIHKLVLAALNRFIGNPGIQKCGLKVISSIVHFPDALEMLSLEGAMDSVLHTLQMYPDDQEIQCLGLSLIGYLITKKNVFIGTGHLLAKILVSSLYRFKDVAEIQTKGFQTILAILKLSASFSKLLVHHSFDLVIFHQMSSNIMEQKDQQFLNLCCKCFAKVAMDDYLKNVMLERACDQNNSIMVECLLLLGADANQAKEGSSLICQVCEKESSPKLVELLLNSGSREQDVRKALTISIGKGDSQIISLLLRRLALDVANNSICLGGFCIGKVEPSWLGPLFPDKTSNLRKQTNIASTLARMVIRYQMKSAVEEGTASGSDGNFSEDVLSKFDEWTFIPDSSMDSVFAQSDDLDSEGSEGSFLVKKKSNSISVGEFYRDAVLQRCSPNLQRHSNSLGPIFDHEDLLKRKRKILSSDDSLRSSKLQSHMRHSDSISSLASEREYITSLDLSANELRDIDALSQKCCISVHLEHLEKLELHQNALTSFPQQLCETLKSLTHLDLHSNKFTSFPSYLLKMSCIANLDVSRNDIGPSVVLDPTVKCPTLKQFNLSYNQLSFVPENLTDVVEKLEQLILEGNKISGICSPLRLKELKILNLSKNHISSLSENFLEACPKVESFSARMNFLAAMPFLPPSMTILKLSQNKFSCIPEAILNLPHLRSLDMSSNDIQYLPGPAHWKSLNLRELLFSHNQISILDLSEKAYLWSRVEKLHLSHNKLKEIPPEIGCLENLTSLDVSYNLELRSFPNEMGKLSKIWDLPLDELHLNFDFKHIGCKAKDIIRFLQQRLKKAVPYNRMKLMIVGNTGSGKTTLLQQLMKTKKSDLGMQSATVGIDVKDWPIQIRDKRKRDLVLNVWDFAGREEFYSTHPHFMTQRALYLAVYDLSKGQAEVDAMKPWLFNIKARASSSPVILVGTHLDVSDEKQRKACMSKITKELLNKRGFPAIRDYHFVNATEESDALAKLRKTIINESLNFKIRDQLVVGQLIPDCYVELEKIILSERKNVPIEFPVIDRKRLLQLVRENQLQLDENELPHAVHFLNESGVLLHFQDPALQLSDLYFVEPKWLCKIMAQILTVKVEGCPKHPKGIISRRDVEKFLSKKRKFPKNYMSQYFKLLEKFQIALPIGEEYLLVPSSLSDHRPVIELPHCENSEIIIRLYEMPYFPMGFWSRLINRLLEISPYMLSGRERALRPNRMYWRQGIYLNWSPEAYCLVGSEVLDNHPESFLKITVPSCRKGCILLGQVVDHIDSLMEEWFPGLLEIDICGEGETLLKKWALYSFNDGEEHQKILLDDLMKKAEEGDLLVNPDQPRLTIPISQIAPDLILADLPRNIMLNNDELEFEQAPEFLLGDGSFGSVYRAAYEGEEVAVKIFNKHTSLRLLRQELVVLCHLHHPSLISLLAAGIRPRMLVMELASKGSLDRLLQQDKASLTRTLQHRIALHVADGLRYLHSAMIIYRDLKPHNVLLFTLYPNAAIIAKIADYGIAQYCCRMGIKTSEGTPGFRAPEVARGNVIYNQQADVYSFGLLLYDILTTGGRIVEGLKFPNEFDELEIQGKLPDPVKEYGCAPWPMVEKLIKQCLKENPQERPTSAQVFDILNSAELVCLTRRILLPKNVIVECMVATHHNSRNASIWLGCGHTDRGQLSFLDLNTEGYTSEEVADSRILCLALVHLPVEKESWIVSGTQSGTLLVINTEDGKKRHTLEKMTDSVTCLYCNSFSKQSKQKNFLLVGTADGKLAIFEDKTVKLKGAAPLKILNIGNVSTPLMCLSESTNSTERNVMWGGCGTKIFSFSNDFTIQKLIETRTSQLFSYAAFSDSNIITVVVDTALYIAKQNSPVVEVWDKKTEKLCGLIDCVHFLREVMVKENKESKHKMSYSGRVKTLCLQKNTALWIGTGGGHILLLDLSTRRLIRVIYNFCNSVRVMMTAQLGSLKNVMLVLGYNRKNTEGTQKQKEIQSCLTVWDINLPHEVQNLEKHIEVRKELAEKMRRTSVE

This assay has as its target T1, recombinant full length LRRK2 (Homo sapiens, UniProt Q5S007).
T1 construct: A BacMam virus expressing full length recombinant LRRK2 was purchased from Invitrogen; host or cells: SH-SY5Y human neuroblastoma cells transduced with BacMam LRRK2 virus (MOI 50)
As to the kind of experiment: Recombinant cellular LRRK2 AlphaScreen assay. Format: cell-based. The settings on record: LRRK2 Ser935 phosphorylation, SH-SY5Y cells over-expressing recombinant full length LRRK2; read-out: pIC50 in the recombinant cellular LRRK2 AlphaScreen assay (converted). From the text:
b. Recombinant Cellular LRRK2 AlphaScreen Assay
To determine the activity of compounds against LRRK2 kinase activity in cells, the observed LRRK2 kinase-dependent modulation of LRRK2 Ser 935 phosphorylation (Dzamko et al., 2010, Biochem. J. 430: 405-413) was utilized to develop a quantitative 384 well plate-based immunoassay of LRRK2 Ser935 phosphorylation in the human neuroblastoma cell line SH-SY5Y, engineered to over-express recombinant full length LRRK2 protein. A BacMam virus expressing full length recombinant LRRK2 was purchased from Invitrogen and amplified by inoculation of SF-9 cells at MOI 0.3 for 4-5 days in Sf-900 III SFM medium supplemented with 3% fetal bovine serum. Infected cell cultures were then centrifuged at 2000 g for 20 minutes, viral supernatant titer determined by anti-gp64 plaque assay and stored at 4° C. Affinity-purified anti-phospho LRRK2 Ser935 sheep polyclonal antibody (Dzamko et al., 2010, Biochem. J. 430: 405-413) was biotinylated by standard methods (PerkinElmer). Anti-LRRK2 rabbit polyclonal antibody was purchased from Novus Biologicals. AlphaScreen Protein A IgG Kit (including acceptor and donor beads) was purchased from Perkin Elmer. SH-SY5Y cells were grown in DMEM/F12 medium with 10% dialysed fetal bovine serum and harvested by treatment with 0.5% trypsin-EDTA for 5 minutes at 37° C. followed by centrifugation at 1000 rpm for 4 minutes. The cell pellet was resuspended in Opti-MEM reduced serum media (Invitrogen) at 200,000 cells/ml and mixed with the BacMam LRRK2 virus at MOI=50. 50 μl cell solutions were then dispensed to each well of a 384-well plate and incubated at 37° C., 5% CO2 for 24 hours. Serial dilutions of test compounds were prepared in Opti-MEM reduced serum media (Invitrogen) and 5.6 ul transferred from compound plate to cell assay plate to achieve a top final assay concentration of 10 uM. DMSO was used in certain wells as controls. Cells were incubated at 37° C., 5% CO2 for 60 minutes. The medium was then removed and cells lysed by addition of 20 ul cell lysis buffer (Cell Signaling Technology) and incubation at 4° C. for 20 minutes. 10 ul of antibody/acceptor bead mix [(1/1000 biotinylated-pS935 LRRK2 antibody, 1/1000 total-LRRK2 antibody, 1/100 Acceptor beads in AlphaScreen detection buffer (25 mM Hepes (pH 7.4), 0.5% Triton X-100, 1 mg/ml Dextran 500 and 0.1% BSA)] was then added to each well and plates incubated for 2 hours at ambient temperature in the dark. 10 μl of donor beads solution (1/33.3 donor beads in AlphaScreen detection buffer) was then added to each well. Following incubation for a further 2 hours at ambient temperature in the dark, plates were read on an EnVision™ plate reader at emission 520-620 nm with excitation 680 nm. Dose response curve data was based on sigmoidal dose-response model.
Consider `Cc1nc(N2CCO[C@H](CO)C2)cc(-n2ncc3cc(C)c(C4CCN(C5CCOC5)CC4F)cc32)n1` (single isomer, unassigned) [Example E105], for which the IC50 was at most 100 nM.

Regarding `COc1nc(N2CC(C(C)O)C2)cc(-n2ncc3cc(C)c(C4CCN(C5CCOC5)CC4)cc32)n1` (single isomer, unassigned) [Example E97, 1-(1-(2-methoxy-6-(5-methyl-6-(1-(tetrahydrofuran-3-yl)piperidin-4-yl)-1H-indazol-1-yl)pyrimidin-4-yl)azetidin-3-yl)ethanol], the IC50 is at most 100 nM.

For the molecule `Cc1nc(OC2CC(O)C2)cc(-n2ncc3cc(C)c(C4CCN(C5CCOC5)CC4)cc32)n1` (single isomer, unassigned) [Example E145, 3-((2-methyl-6-(5-methyl-6-(1-(tetrahydrofuran-3-yl)piperidin-4-yl)-1H-indazol-1-yl)pyrimidin-4-yl)oxy)cyclobutanol], the IC50 is at most 1000 nM.

In the case of `COc1nc(N2CC(C(C)O)C2)cc(-n2ncc3cc(C)c(C4CCN(C5CCOC5)CC4)cc32)n1` (single isomer, unassigned) [Example E98, 1-(1-(2-methoxy-6-(5-methyl-6-(1-(tetrahydrofuran-3-yl)piperidin-4-yl)-1H-indazol-1-yl)pyrimidin-4-yl)azetidin-3-yl)ethanol], the IC50 is at most 100 nM.

For the molecule `COc1nc(N2CCOC(C(C)O)C2)cc(-n2ncc3cc(C)c(C4CCN(C5CCOC5)CC4)cc32)n1` (single isomer, unassigned) [Example E21, 1-(4-(2-Methoxy-6-(5-methyl-6-(1-(tetrahydrofuran-3-yl)piperidin-4-yl)-1H-indazol-1-yl)pyrimidin-4-yl)morpholin-2-yl)ethanol], the IC50 was at most 100 nM.

In the case of `COc1nc(N2CC[C@H](O)C2)cc(-n2ncc3cc(C)c(C4CCN(C5CCOC5)CC4)cc32)n1` (single isomer, unassigned) [Example E17], the IC50 was at most 100 nM.

With `Cc1nc(N2CCO[C@H](CO)C2)cc(-n2ncc3cc(Cl)c(C4CCN(C5CCOC5)CC4)cc32)n1` (single isomer, unassigned) [Example E25], the IC50 was at most 100 nM.

On to `Cc1nc(N[C@@H]2CCOC2)cc(-n2ncc3cc(C)c(C4CCN(C5CCOC5)CC4)cc32)n1` (stereo partly drawn) [Example E143, 2-methyl-6-(5-methyl-6-(1-(tetrahydrofuran-3-yl)piperidin-4-yl)-1H-indazol-1-yl)-N—((R)-tetrahydrofuran-3-yl)pyrimidin-4-amine], for which the IC50 was at most 1000 nM.

On to `COc1nc(N2CC(O)C2)cc(-n2ncc3cc(Cl)c(C4CCN(C5CCOC5)CC4)cc32)n1` (single isomer, unassigned) [Example E29, 1-(6-(5-Chloro-6-(1-(tetrahydrofuran-3-yl)piperidin-4-yl)-1H-indazol-1-yl)-2-methoxy-pyrimidin-4-yl)azetidin-3-ol], for which the IC50 was at most 10 nM.

As for `Cc1nc(N2CC(CC(C)O)C2)cc(-n2ncc3cc(Cl)c(C4CCN(C5CCOC5)CC4)cc32)n1` (single isomer, unassigned) [Example E44, 1-(1-(6-(5-Chloro-6-(1-(tetrahydrofuran-3-yl)piperidin-4-yl)-1H-indazol-1-yl)-2-methylpyr-imidin-4-yl)azetidin-3-yl)propan-2-ol], the IC50 was at most 100 nM.

With `COc1nc(N2CCNC(=O)C2)cc(-n2ncc3cc(C)c(C4CCN(C5CCOC5)CC4F)cc32)n1` (single isomer, unassigned) [Example E53, 4-(6-(6-(3-Fluoro-1-(tetrahydrofuran-3-yl)piperidin-4-yl)-5-methyl-1H-indazo-1-yl)-2-methoxypyrimidin-4-yl)piperazin-2-one], the IC50 was at most 10 nM.

Take `COc1nc(N2CCO[C@H](CO)C2)cc(-n2ncc3cc(C)c(C4CCN(C5CCOC5)CC4F)cc32)n1` (single isomer, unassigned) [Example E123]: the IC50 is at most 10 nM.

On to `[2H]C1(N2CCC(c3cc4c(cnn4-c4cc(N5CCO[C@@H](CO)C5)nc(C)n4)cc3C)CC2)CCOC1` (single isomer, unassigned) [Example E36], for which the IC50 is 158 nM.

Consider `COc1nc(N2CCO[C@H](CO)C2)cc(-n2ncc3cc(C)c(C4CCN(C5CCOC5)CC4F)cc32)n1` (single isomer, unassigned) [Example E121], for which the IC50 was at most 10 nM.

`Cc1nc(N2CCO[C@H](CO)C2)cc(-n2ncc3cc(C)c(C4CCN(C5CCOC5)CC4F)cc32)n1` (single isomer, unassigned) [Example E103]: the IC50 is at most 100 nM.

For `COc1nc(N2CC(C)(O)C2)cc(-n2ncc3cc(C)c(C4CCN(C5CCOC5)CC4)cc32)n1` (single isomer, unassigned) [Example E11, 1-(2-Methoxy-6-(5-methyl-6-(1-(tetrahydrofuran-3-yl)piperidin-4-yl)-1H-indazol-1-yl)pyrimidin-4-yl)-3-methylazetidin-3-ol], the IC50 is at most 100 nM.

In the case of `[2H]C1([2H])CC(c2cc3c(cnn3-c3cc(N4CCO[C@@H](CO)C4)nc(C)n3)cc2C)CC([2H])([2H])N1[C@H]1CCOC1` [Example E96, ((R)-4-(2-methyl-6-(5-methyl-6-(1-((S)-tetrahydrofuran-3-yl)piperidin-4-yl-2,2,6,6-d4)-1H-indazol-1-yl)pyrimidin-4-yl)morpholin-2-yl)methanol], the IC50 was ≤ 100 nM and 100 nM.

Take `COc1nc(N2CC[C@@H](O)C2)cc(-n2ncc3cc(C)c(C4CCN(C5CCOC5)CC4)cc32)n1` (single isomer, unassigned) [Example E19]: the IC50 is at most 100 nM.

For `Cc1nc(N2CCO[C@@H](CO)C2)cc(-n2ncc3cc(Cl)c(C4CCN(C5CCOC5)CC4)cc32)n1` (single isomer, unassigned) [Example E129], the IC50 was at most 1000 nM.

On to `Cc1nc(N2CCO[C@@H](CO)C2)cc(-n2ncc3cc(C)c(C4CCN(C5CCOC5)CC4F)cc32)n1` (single isomer, unassigned) [Example E101], for which the IC50 was at most 100 nM.

As to `Cc1nc(N2CCO[C@H](CO)C2)cc(-n2ncc3cc(C)c(C4CCN(C5CCOC5)CC4F)cc32)n1` (single isomer, unassigned) [Example E104], the IC50 was at most 100 nM.

Regarding `COc1nc(N2CC(O)C2)cc(-n2ncc3cc(C)c(C4CCN(C5CCOC5)CC4F)cc32)n1` (single isomer, unassigned) [Example E5, cis-1-(6-(6-(3-Fluoro-1-(tetrahydrofuran-3-yl)piperidin-4-yl)-5-methyl-1H-indazol-1-yl)-2-methoxypyrimidin-4-yl)azetidin-3-ol], the IC50 is ≤ 10 nM and 5.01 nM.

For the molecule `Cc1nc(N2CC(C)OC(CO)C2)cc(-n2ncc3cc(C)c(C4CCN(C5CCOC5)CC4)cc32)n1` (single isomer, unassigned) [Example E60, (6-Methyl-4-(2-methyl-6-(5-methyl-6-(1-(tetrahydrofuran-3-yl)piperidin-4-yl)-1H-indazol-1-yl)pyrimidin-4-yl)morpholin-2-yl)methanol], the IC50 was at most 100 nM.

With `COc1nc(N2CC(C(C)O)C2)cc(-n2ncc3cc(C)c(C4CCN(C5CCOC5)CC4)cc32)n1` (single isomer, unassigned) [Example E100, 1-(1-(2-methoxy-6-(5-methyl-6-(1-(tetrahydrofuran-3-yl)piperidin-4-yl)-1H-indazol-1-yl)pyrimidin-4-yl)azetidin-3-yl)ethanol], the IC50 was at most 1000 nM.
